One assay deals with Caspase 3. In words: Caspase 3 detection assay in SJSA1 cells. The assay is classed as cell-based. Particulars: SJSA1, 48 h, Caspase 3 activation over DMSO-treated cells.
The next assay has as its system SJSA-1 cells. In words: Cell lysis by peptidomimetic macrocycles (LDH release). In kind it is cell-based. Particulars: SJSA-1, 1 h. In a few lines: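 SJSA-1 cells plated the day before, switched to RPMI with 1% FBS, then exposed 1 h at 37 °C to macrocycle at final 50 μM to 6.25 μM in 0.5% DMSO. LDH released into the supernatant was measured by kit. Controls: 0.5% DMSO (non-lytic), 10 μM melittin and 1% Triton X-100 (lytic).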
For orientation: LDH leaks from cells whose membrane has failed.

The structures appear in SMILES notation. Bridge positions count the residues as written; N and C are the ends. Square brackets hold non-standard residues; d marks the D form. Peptide text beside a SMILES is read from it. Phe(3,4-F2) = N[C@@H](Cc1ccc(F)c(F)c1)C(=O)O; R8 = C=CCCCCCC[C@@](C)(N)C(=O)O; Cba = N[C@@H](CC1CCC1)C(=O)O; S5 = C=CCCC[C@](C)(N)C(=O)O; Nle = CCCC[C@H](N)C(=O)O

Take `CC(=O)N[C@@H](CC(C)C)C(=O)N[C@H](C(=O)N[C@@H](Cc1ccccc1)C(=O)N[C@]1(C)CCCCCCC=CCCC[C@@](C)(C(=O)N[C@@H](CO)C(=O)N[C@@H](C)C(=O)N[C@@H](C)C(N)=O)NC(=O)[C@H](CC(C)C)NC(=O)[C@H](C)NC(=O)[C@H](C)NC(=O)[C@H](Cc2c[nH]c3ccccc23)NC(=O)[C@H](Cc2c[nH]cn2)NC(=O)[C@H](C)NC1=O)[C@@H](C)O` [compound 197] (Ac-LTF[R8]AHWAAL[S5]SAA-NH2; staple 4-11): in the assay on Caspase 3, the “caspase 0.3 μM” value is on record as 1, the “caspase 3 μM” value is listed as 1, the “caspase 10 μM” value was 10 and the “caspase 30 μM” value came out at 20. Further, in the assay on SJSA-1 cells, the “6.25 μM % Lysed cells (1 h LDH)” value came to 1%, the “25 μM % Lysed cells (1 h LDH)” value is recorded as −1% and the “50 μM % Lysed cells (1 h LDH)” value was −2%.
As to `CC[C@H](C)[C@H](NC(=O)[C@H](C)NC(=O)[C@H](C)NC(=O)[C@]1(C)CCCC=CCCCCCC[C@@](C)(NC(=O)[C@H](Cc2ccccc2)NC(=O)[C@@H](NC(=O)[C@H](CC(C)C)NC(C)=O)[C@@H](C)O)C(=O)N[C@@H](C)C(=O)N[C@@H](Cc2ccc(O)cc2)C(=O)N[C@@H](Cc2c[nH]c3ccccc23)C(=O)N[C@@H](C)C(=O)N[C@@H](C)C(=O)N[C@@H](CC(C)C)C(=O)N1)C(=O)N[C@H](C)C(N)=O` (single isomer, unassigned) [compound 203], in the assay with Caspase 3, the “caspase 0.3 μM” value is 1, the “caspase 3 μM” value was 3, the “caspase 10 μM” value is reported as 12 and the “caspase 30 μM” value was 10. Moreover, in the assay with SJSA-1 cells, the “6.25 μM % Lysed cells (1 h LDH)” value was determined as 0%, the “25 μM % Lysed cells (1 h LDH)” value stood at 2% and the “50 μM % Lysed cells (1 h LDH)” value came out at 2%.
Consider `CC(=O)N[C@@H](CC(C)C)C(=O)N[C@H](C(=O)N[C@@H](Cc1ccccc1)C(=O)N[C@]1(C)CCCCCCC=CCCC[C@@](C)(C(=O)N[C@@H](CO)C(=O)N[C@@H](C)C(=O)N[C@@H](C)C(N)=O)NC(=O)[C@H](CC2CCC2)NC(=O)[C@H](CCC(N)=O)NC(=O)[C@H](C)NC(=O)[C@H](Cc2c[nH]c3ccccc23)NC(=O)[C@H](Cc2ccc(O)cc2)NC(=O)[C@H](CCC(=O)O)NC1=O)[C@@H](C)O` (single isomer, unassigned) [compound 153], for which, in the assay with Caspase 3, the “caspase 0.3 μM” value is 2, the “caspase 3 μM” value was 10, the “caspase 10 μM” value is 15 and the “caspase 30 μM” value is recorded as 20. Moreover, in the assay on SJSA-1 cells, the “6.25 μM % Lysed cells (1 h LDH)” value is recorded as 4%, the “25 μM % Lysed cells (1 h LDH)” value is 2% and the “50 μM % Lysed cells (1 h LDH)” value came to 3%.
Consider `CC(=O)N[C@@H](CCC(=O)O)C(=O)N[C@H](C(=O)N[C@@H](Cc1ccccc1)C(=O)N[C@]1(C)CCCCCCC=CCCC[C@@](C)(C(=O)N[C@@H](CO)C(=O)N[C@H](C(=O)N[C@@H](CO)C(N)=O)C(C)C)NC(=O)[C@H](CC(C)C)NC(=O)[C@H](CCC(N)=O)NC(=O)[C@H](C)NC(=O)[C@H](Cc2c[nH]c3ccccc23)NC(=O)[C@H](Cc2ccc(O)cc2)NC(=O)[C@H](C(C)C)NC1=O)[C@@H](C)O` [compound 130] (Ac-ETF[R8]VYWAQL[S5]SVS-NH2; staple 4-11), for which, in the assay on Caspase 3, the “caspase 0.3 μM” value turned out to be 1, the “caspase 3 μM” value is 2, the “caspase 10 μM” value was 6 and the “caspase 30 μM” value stood at 17. Moreover, in the assay on SJSA-1 cells, the “6.25 μM % Lysed cells (1 h LDH)” value is on record as 1%, the “25 μM % Lysed cells (1 h LDH)” value was 0% and the “50 μM % Lysed cells (1 h LDH)” value was −1%.
In the case of `CC[C@H](C)[C@H](NC(=O)[C@H](C)NC(=O)[C@H](C)NC(=O)[C@]1(C)CCCC=CCCCCCC[C@@](C)(NC(=O)[C@H](Cc2ccccc2)NC(=O)[C@@H](NC(=O)[C@H](CC(C)C)NC(C)=O)[C@@H](C)O)C(=O)N[C@@H](CCC(=O)O)C(=O)N[C@@H](Cc2ccc(O)cc2)C(=O)N[C@@H](Cc2c[nH]c3ccccc23)C(=O)N[C@@H](C)C(=O)N[C@@H](CCC(N)=O)C(=O)N[C@@H](CC2CCC2)C(=O)N1)C(=O)N[C@H](C)C(N)=O` [compound 247] (Ac-LTF[R8]EYWAQ[Cba][S5]AAI[dA]-NH2; staple 4-11), in the assay on Caspase 3, the “caspase 0.3 μM” value came to 1, the “caspase 3 μM” value is 3, the “caspase 10 μM” value is given as 11 and the “caspase 30 μM” value is on record as 24. In the assay on SJSA-1 cells, the “6.25 μM % Lysed cells (1 h LDH)” value is listed as 0%, the “25 μM % Lysed cells (1 h LDH)” value was 0% and the “50 μM % Lysed cells (1 h LDH)” value is 4%.
For `CC(=O)N[C@@H](CC(C)C)C(=O)N[C@H](C(=O)N[C@@H](Cc1ccccc1)C(=O)N[C@]1(C)CCCCCCC=CCCC[C@@](C)(C(=O)N[C@@H](CO)C(=O)N[C@@H](C)C(=O)N[C@@H](C)C(N)=O)NC(=O)[C@H](C2CCCC2)NC(=O)[C@H](CCC(N)=O)NC(=O)[C@H](C)NC(=O)[C@H](Cc2c[nH]c3ccccc23)NC(=O)[C@H](Cc2ccc(O)cc2)NC(=O)[C@H](CCC(=O)O)NC1=O)[C@@H](C)O` (single isomer, unassigned) [compound 149], in the assay with Caspase 3, the “caspase 0.3 μM” value came to 1, the “caspase 3 μM” value is on record as 2, the “caspase 10 μM” value stood at 4 and the “caspase 30 μM” value amounted to 10. Also, in the assay on SJSA-1 cells, the “6.25 μM % Lysed cells (1 h LDH)” value is given as 6%, the “25 μM % Lysed cells (1 h LDH)” value came to 7% and the “50 μM % Lysed cells (1 h LDH)” value is reported as 21%.
For the compound `CC[C@H](C)[C@H](NC(C)=O)C(=O)N[C@H](C(=O)N[C@@H](Cc1ccccc1)C(=O)N[C@]1(C)CCCCCCC=CCCC[C@@](C)(C(=O)N[C@@H](C)C(=O)N[C@@H](C)C(=O)N[C@H](C(=O)N[C@H](C)C(N)=O)[C@@H](C)CC)NC(=O)[C@H](CC(C)C)NC(=O)[C@H](CCC(N)=O)NC(=O)[C@H](C(C)C)NC(=O)[C@H](Cc2c[nH]c3ccccc23)NC(=O)[C@H](Cc2ccc(O)cc2)NC(=O)[C@H](Cc2ccccc2)NC1=O)[C@@H](C)O` [compound 177] (Ac-ITF[R8]FYWVQL[S5]AAI[dA]-NH2; staple 4-11), in the assay with Caspase 3, the “caspase 0.3 μM” value is 1, the “caspase 3 μM” value worked out at 1, the “caspase 10 μM” value stood at 8 and the “caspase 30 μM” value came to 20. Moreover, in the assay with SJSA-1 cells, the “6.25 μM % Lysed cells (1 h LDH)” value is −1%, the “25 μM % Lysed cells (1 h LDH)” value is 0% and the “50 μM % Lysed cells (1 h LDH)” value amounted to 1%.
As for `CC(=O)N[C@@H](CC(C)C)C(=O)N[C@H](C(=O)N[C@@H](Cc1ccccc1)C(=O)N[C@]1(C)CCCCCCC=CCCC[C@@](C)(C(=O)N[C@@H](C)C(=O)N[C@@H](C)C(=O)N[C@@H](Cc2ccccc2)C(=O)N[C@H](C)C(N)=O)NC(=O)[C@H](CC(C)C)NC(=O)[C@H](CCC(N)=O)NC(=O)[C@H](C)NC(=O)[C@H](Cc2c[nH]c3ccccc23)NC(=O)[C@H](Cc2ccc(O)cc2)NC(=O)[C@H](CCC(=O)O)NC1=O)[C@@H](C)O` (single isomer, unassigned) [compound 218], in the assay on Caspase 3, the “caspase 0.3 μM” value came to 1, the “caspase 3 μM” value is on record as 2, the “caspase 10 μM” value came out at 8 and the “caspase 30 μM” value is reported as 18. Besides, in the assay with SJSA-1 cells, the “6.25 μM % Lysed cells (1 h LDH)” value is given as 0%, the “25 μM % Lysed cells (1 h LDH)” value was −4% and the “50 μM % Lysed cells (1 h LDH)” value stood at 1%.
For `CC(=O)N[C@@H](CC(C)C)C(=O)N[C@H](C(=O)N[C@@H](Cc1ccccc1)C(=O)N[C@]1(C)CCCCCCC=CCCC[C@@](C)(C(=O)N[C@@H](CO)C(=O)NC(C)(C)C(=O)N[C@@H](C)C(=O)N[C@@H](C)C(N)=O)NC(=O)[C@H](CC(C)C)NC(=O)[C@H](CCC(N)=O)NC(=O)[C@H](C)NC(=O)[C@H](Cc2c[nH]c3ccccc23)NC(=O)[C@H](Cc2ccc(O)cc2)NC(=O)[C@H](C)NC1=O)[C@@H](C)O` (single isomer, unassigned) [compound 26], in the assay on Caspase 3, the “caspase 0.3 μM” value came out at 1, the “caspase 3 μM” value worked out at 1, the “caspase 10 μM” value is reported as 3 and the “caspase 30 μM” value is 14. In the assay with SJSA-1 cells, the “6.25 μM % Lysed cells (1 h LDH)” value is recorded as 2%, the “25 μM % Lysed cells (1 h LDH)” value is reported as −1% and the “50 μM % Lysed cells (1 h LDH)” value was 0%.
For `CCCC[C@H](NC(=O)[C@H](C)NC(=O)[C@H](CO)NC(=O)[C@]1(C)CCCC=CCCCCCC[C@@](C)(NC(=O)[C@H](Cc2ccc(F)c(F)c2)NC(=O)[C@@H](NC(=O)[C@H](CC(C)C)NC(C)=O)[C@@H](C)O)C(=O)N[C@@H](CCC(=O)O)C(=O)N[C@@H](Cc2ccc(O)cc2)C(=O)N[C@@H](Cc2c[nH]c3ccccc23)C(=O)N[C@@H](C)C(=O)N[C@@H](CCC(N)=O)C(=O)N[C@@H](CC2CCC2)C(=O)N1)C(=O)N[C@@H](C)C(N)=O` [compound 243] (Ac-LT[Phe(3,4-F2)][R8]EYWAQ[Cba][S5]SA[Nle]A-NH2; staple 4-11), in the assay on Caspase 3, the “caspase 0.3 μM” value is on record as 1, the “caspase 3 μM” value came to 2, the “caspase 10 μM” value is given as 5 and the “caspase 30 μM” value amounted to 23. For the same compound, in the assay on SJSA-1 cells, the “6.25 μM % Lysed cells (1 h LDH)” value was 4%, the “25 μM % Lysed cells (1 h LDH)” value came out at 39% and the “50 μM % Lysed cells (1 h LDH)” value worked out at 64%.
As for `CSCC[C@H](NC(=O)[C@H](C)NC(=O)[C@H](C)NC(=O)[C@]1(C)CCCC=CCCCCCC[C@@](C)(NC(=O)[C@H](Cc2ccccc2)NC(=O)[C@@H](NC(=O)[C@H](CC(C)C)NC(C)=O)[C@@H](C)O)C(=O)N[C@@H](C)C(=O)N[C@@H](Cc2ccc(O)cc2)C(=O)N[C@@H](Cc2c[nH]c3ccccc23)C(=O)N[C@@H](C)C(=O)N[C@@H](C)C(=O)N[C@@H](CC(C)C)C(=O)N1)C(=O)N[C@H](C)C(N)=O` [compound 72] (Ac-LTF[R8]AYWAAL[S5]AAM[dA]-NH2; staple 4-11), in the assay on Caspase 3, the “caspase 0.3 μM” value is recorded as 1, the “caspase 3 μM” value was 1, the “caspase 10 μM” value stood at 4 and the “caspase 30 μM” value is 10. In addition, in the assay on SJSA-1 cells, the “6.25 μM % Lysed cells (1 h LDH)” value was 2%, the “25 μM % Lysed cells (1 h LDH)” value is listed as 0% and the “50 μM % Lysed cells (1 h LDH)” value stood at 3%.

Source of the values: patent publication US20200369728A1, “PEPTIDOMIMETIC MACROCYCLES AND USES THEREOF” (Aileron Therapeutics, Inc., priority 2015, published 2020).
